Reference: US8568801B2, “Solid oral sensorial products including stain inhibitor” (Philip Morris USA Inc., priority 2010, dated 2013)

Experiments:
[1] = Cow's teeth staining by extract of Burley tobacco pouches; conditions: as printed, the tobacco-only tooth is the darker one; inhibitor extract from 50 mg sodium hexametaphosphate and 5.0 g Burley tobacco; 5 soaks; FIG. 10
Protocol: (§1) To determine the effectiveness of the phosphate containing stain inhibitor on solid oral sensorial products including tobacco, 187.5 mL artificial saliva and 75 pouches containing 5.0 g Burley tobacco were placed in a bag in a water bath at 100° F. for 3 minutes. The artificial saliva was formed as part of a 1000 mL batch including 4.20 g sodium bicarbonate, 0.50 g sodium chloride and 0.20 g potassium carbonate. The bag was removed and rolled for about 2 minutes and then returned to the water bath for 10 minutes. This process was repeated four more times (five total). The pouches were then removed from the bag and 50 mL of the Burley tobacco extract was placed in a 250 mL crystallization beaker. Cow's teeth were then immersed in the 50 mL of extract, the beaker was covered with polypropylene wrap, and the teeth were soaked for 7 minutes at about 100° F. The teeth were removed from the beaker and rinsed with reverse osmosis water for about 5 seconds. The front enamel of each tooth was brushed with 1 g of Crest® Cavity Protection toothpaste for 30 seconds, rinsed with reverse osmosis water and covered to prevent exposure to light. This regime was repeated 4 additional times (5 total). A second extract was made using pouches including 5.0 g Burley tobacco and 50 mg sodium hexametaphosphate. […]

[2] = Hydroxyapatite powder soaked in tea extract; conditions: 5.0 g tea and 50 mg sodium hexametaphosphate in 100 mL water, room temperature, about 1 hour; FIG. 12
Protocol: A second extract was formed by soaking 5.0 g of tea in 100 mL water at room temperature for about 1 hour. Each extract was then filtered through #2 Watman filter paper. Approximately 152 mg of hydroxyapatite powder was placed in the bottom of each of two centrifuge vials. 14 mL of the first extract was placed in one vial and 14 mL of the second extract was placed in the second vial.

[3] = Cow's teeth staining by extract of tea pouches, simulating 6 months of use; conditions: extract of pouches with 5.0 g tea and 50 mg sodium hexametaphosphate; 5 soaks of 7 minutes at about 100° F. with brushing; FIG. 9
Protocol: as §1, with “on” for “on solid”, “tea, a test was performed to simulate 6 months of use of the oral sensorial products. About” for “tobacco,”, “tea” for “Burley tobacco”, “the” for “the Burley tobacco”

[4] = Hydroxyapatite powder washed in phosphate, then soaked in Burley tobacco extract; conditions: compared with unwashed HAP powder and with HAP powder first washed in dibasic sodium phosphate; FIG. 11
[5] = Hydroxyapatite powder soaked in Burley tobacco extract with various amounts of sodium hexametaphosphate; conditions: FIG. 13
Protocol: To determine the effect of various amount of sodium hexametaphosphate, 5.0 grams of Burley tobacco was soaked in 100 mL water at room temperature for 1 hour to form a first extract. A second extract was formed by soaking 5.0 grams of Burley tobacco and […] sodium hexametaphosphate in 100 mL water at room temperature for 1 hour. A third extract was formed by soaking 5.0 grams of Burley tobacco and 0.252 g sodium hexametaphosphate in 100 mL water at room temperature for 1 hour. A fourth extract was formed by soaking 5.0 grams of Burley tobacco and 0.047 g sodium hexametaphosphate in 100 mL water at room temperature for 1 hour. Each extract was then filtered through #2 Watman filter paper. Approximately […] of hydroxyapatite powder was placed in the bottom of each of four centrifuge vials. 14 mL of the first extract was placed in the first vial, 14 mL of the second extract was placed in the second vial, 14 mL of the third extract was placed in the third vial and 14 mL of the fourth extract was placed in the fourth vial. The powder in each vial was allowed to soak for about 1 hour with agitation and then the powder was decanted, washed in distilled water at least three times and decanted each time.

Q: With `O=P1([O-])OP(=O)([O-])OP(=O)([O-])OP(=O)([O-])OP(=O)([O-])OP(=O)([O-])O1.[Na+].[Na+].[Na+].[Na+].[Na+].[Na+]` [sodium hexametaphosphate] as the compound, how does the “color of cow's tooth soaked in Burley tobacco extract alone compared with tooth soaked in extract with sodium hexametaphosphate” value [1] read?
A: visibly darker

Q: And the “color of HAP powder soaked in extract of tea and sodium hexametaphosphate compared with tea alone” value [2]?
A: visibly whiter

Q: And the “color of cow's teeth exposed to sodium hexametaphosphate and tea compared with teeth exposed to tea alone” value [3]?
A: noticeably lighter in color

Q: And the “color of HAP powder first washed in the phosphate and then soaked in Burley tobacco extract” value [4]?
A: visibly whiter

Q: What about the “color of powders soaked in extracts with larger amounts of sodium hexametaphosphate compared with smaller amounts” value ([5]; 25.080 g, 0.252 g and 0.047 g sodium hexametaphosphate with 5.0 g Burley tobacco in 100 mL water) of the same compound?
A: lighter in color

Q: What about the “color of powder soaked in Burley tobacco extract alone compared with powders soaked in extracts including sodium hexametaphosphate” value ([5]; as printed, the tobacco-only powder is the darker one, 5.0 g Burley tobacco with 25.080 g, 0.252 g or 0.047 g sodium hexametaphosphate in 100 mL water) of the same compound?
A: visibly darker
